US20140357688A1, “METHOD FOR INHIBITING EZH2 EXPRESSION IN BREAST CANCER CELLS” (Yung Shin Pharm. Ind. Co., Ltd., priority 2013, published 2014)

Columns and labels:
184A1 = test: MTT cell viability assay; format: cell-based, human; details: normal mammary epithelial cells 184A1
Procedure: (§1) (A) Cells were treated with indicated concentration of YC-1 for 6, 24, and 48 h. Cell viability was determined by MTT method. (B) MDA-MB-468 cells were treated with 3 μM YC-1 for 0, 6, and 12 h, and then stained with fluorescence diacetate (FDA) and propidium iodide (PI). Cell morphology was assessed by fluorescence microscopy with magnification ×20 (upper 3 rows) or ×40 (lowest row). (C) MDA-MB-468 cells were treated with 3 μM YC-1 for 24 h, cells were lysed and subjected to western blot analysis described in Materials and Methods. β-actin is a loading control. Blots were representative of results from three independent experiments. (D) Cells were treated with vehicle (DMSO, as control) or 3 μM YC-1 for 6 h. The cell cycles were analyzed by flow cytometry. (E) Cells were treated with indicated concentration of YC-1 and then performed with clonogenic assay.
(§2) Human breast cancer cells, MDA-MB-468, MDA-MB-157, MDA-MB-231, MDA-MB-453, and Hs578T, and immortalized mammary epithelial cell lines, 184A1 and MCF-10A, were obtained from American Type Culture Collection (Manassas, Va., USA). MDA-MB-468, MDA-MB-157, MDA-MB-231, and MDA-MB-453 were cultured in DMEM/F12 medium supplemented with 10% FBS, 100 U/ml penicillin, and 100 μg/ml streptomycin. Hs578T was cultured in RPMI 1640 medium containing 10% FBS, 2 mM L-glutamine, 100 U/ml penicillin, and 100 μg/ml streptomycin. 184A1 and MCF-10A were cultured in DMEM/F12 medium supplemented with 5% horse serum, 0.5 μg/ml hydrocortisone, 10 μg/ml insulin, 20 ng/ml epidermal growth factor, 0.1 μg/ml cholera enterotoxin, 2 mM L-glutamine, 100 U/ml penicillin, and 100 μg/ml streptomycin. All cells were maintained in a humidified incubator containing 5% CO2. For hypoxia treatment, cells were incubated in a chamber flushed with 1% 02, 5% CO2, and 94% N2 at 37° C.
(§3) Cell viability was measured by 3-(4,5-Dimethyl-2-thiazolyl)2,5-diphenyl-2H-tetrazolium bromide (MTT) assay.

MCF-10A = test: MTT cell viability assay; format: cell-based, human; details: normal mammary epithelial cells MCF-10A
Procedure: as §1, §2, §3

MDA-MB-468 = test: MTT cell viability assay; format: cell-based, human; details: Homo sapiens, MDA-MB-468
Procedure: as §1, §2, §3

EZH2 [1] = test: Western blot of EZH2 protein expression in MDA-MB-468 cells; format: cell-based, human
Procedure: Cells were harvested and performed with western blotting analysis. […] The levels of protein expression were quantitated and shown under blots. (C) Cells were transfected with EZH2 shRNA for 0, 1, 2, 3, and 4 days and collected for determination of cell viability (left) and protein expression (right). (D)(E) After 4 days of EZH2 knockdown, cells were incubated with 3 μM YC-1 for 4 h and detected cell viability (D) and protein contents (E). (F) Tumor specimens were isolated and protein was extracted for western blot analysis.
Cells were lysed in PBS containing proteinase inhibitor and phosphatase inhibitors and sonication. Protein concentration was measured using the Bio-Rad protein assay kit (Bio-Rad Laboratories, Hercules, Calif., USA). Lysate protein was separated by electrophoresis of SDS-PAGE and transferred to Immobilon P membrane (EMD Millipore). The membranes were incubated with appropriate primary antibodies and horseradish peroxidase-conjugated secondary antibodies (EMD Millipore). The signaling was visualized using Chemiluminescence substrate kit (EMD Millipore) and collected by the Luminesence image analyzer, LAS4000 (Fuji Photo Film Co., Tokyo, Japan). The band intensities were analyzed and quantified by the Multi Gauge software (Fuji Photo Film).

EZH2 [2] = test: Western blot of EZH2 in tumor from MDA-MB-468 xenograft mice; format: in vivo, Nu/Nu mice
Procedure: (A)(B) Cells were treated with indicated concentration of YC-1 for 24 h (A) or 3 μM of YC-1 for indicated time (B). Cells were harvested and performed with western blotting analysis. […] The levels of protein expression were quantitated and shown under blots. (C) Cells were transfected with EZH2 shRNA for 0, 1, 2, 3, and 4 days and collected for determination of cell viability (left) and protein expression (right). (D)(E) After 4 days of EZH2 knockdown, cells were incubated with 3 μM YC-1 for 4 h and detected cell viability (D) and protein contents (E). (F) Tumor specimens were isolated and protein was extracted for western blot analysis.
Cells were lysed in PBS containing proteinase inhibitor and phosphatase inhibitors and sonication. Protein concentration was measured using the Bio-Rad protein assay kit (Bio-Rad Laboratories, Hercules, Calif., USA). Lysate protein was separated by electrophoresis of SDS-PAGE and transferred to Immobilon P membrane (EMD Millipore). […] The band intensities were analyzed and quantified by the Multi Gauge software (Fuji Photo Film).
Nu/Nu female mice (four weeks old) were from National Laboratory Animal Center, Taipei, Taiwan. […] Tumor size and body weights of mice were measured once per 3 days and tumor volume (mm^3) was calculated as the equation: length×(width)×0.5. […]

EZH2-c-Cbl-ERK = test: Co-immunoprecipitation of c-Cbl and EZH2; format: cell-based, human; details: 3 μM YC-1 with MG-132; after 1 h, maximum at 2 h
Procedure: (A) c-Cbl knockdown MDA-MB-468 cells were treated with 3 μM YC-1 for 4 h. Cell were harvested for detection of protein expression. (B) Cells were treated with 3 μM YC-1 for indicated time. Cells were collected and c-Cbl phosphorylation was detected. (C) Cells were pretreated with MG-132 (3 μM) or NH4Cl (30 μM) for 1 h followed by 3 μM YC-1 induction for 6 h. (D) Cells were pretreated with MG-132 and followed by 3 μM YC-1 induction for indicated time. Cells were harvested and lysed for immunoprecipitation assay. The association between c-Cbl and EZH2 were determined by western blotting analysis and probed with anti-EZH2 or anti-c-Cbl antibody. Membranes were stripped and reprobed with anti-c-Cbl or anti-EZH2 antibody to check the input. (E) Cells were preincubated with or without PD98059 (10 μM) in the presence of MG-132 for 1 h prior to 2 h-treatment of 3 μM YC-1. Then cells were collected and lysate protein was subjected for the detection of the c-Cbl-EZH2 complexes.
Cells were lysed with RIPA buffer (50 mM Tris-C1, pH 7.5, 1% Igepal CA-630, 150 mM NaCl, 1 mM EDTA, 1 mM Na3VO4, 1 mM NaF, 1 mM PMSF, 10 μg/ml of leupeptin, aprotinin, and pepstatin A) for 30 min at 4° C. One milligram of cell lysate was incubated with anti-EZH2 or anti-c-Cbl antibody and protein A-Sepharose beads, then gently rotated at 4° C. overnight. […]

IC50 (MDA-MB-468; 24 h-incubation): 620 ± 20 nM | IC50 (MDA-MB-468; 48 h-incubation): 290 ± 20 nM | IC50 (EZH2 [1]; 24 h-incubation, MDA-MB-468, read-out: IC50, inhibition of EZH2 expression): 540 ± 40 nM
Compound: OCc1ccc(-c2nn(Cc3ccccc3)c3ccccc23)o1 [YC-1, 3-(5′-hydroxymethyl-2′-furyl)-1-benzyl indazole]
effect on cell viability (184A1): no effect | effect on cell viability (MCF-10A): no effect | inhibition of EZH2 protein (EZH2 [1]; 3 μM YC-1, 2 h): about 18% | EZH2 level in tumor (EZH2 [2]): decrease EZH2 level in tumor | complex formation of EZH2-c-Cbl-ERK (EZH2-c-Cbl-ERK): induced the complex formation
